Results reported in patent US6569403B1, “Determining effects of external stimuli on the brain using PET” (Miicro, Incorporated, priority 1995, dated 2003).
“Also recorded” adds a separate entry of the source.

Assays:
Type in all cases: in vivo
healthy human subjects [1] = experiment: PET with FDG: cerebral glucose metabolism (CMRglu) under behavioral clamp, drug versus placebo
healthy human subjects [2] = experiment: Profile of Mood States (POMS): subjective effects; conditions: fluoxetine 40 mg oral versus placebo
From the text: (§1) Ninety minutes after administration of fluoxetine or placebo, subjects were repositioned in the PET scanner and a visual monitoring task (VMT) was initiated. The task assured a stable behavioral condition at the time of testing. Each subject was asked to press a button with his or her right thumb every time a dim light (50% of trials) was presented on a screen mounted in front of him or her and was asked to ignore every bright light (50%). The lights were presented under computer control at random intervals ranging from 4 to 7 sec. Each subjected completed four blocks of 96 trials each (approximately 10 min per block). Subjects also completed the Profile of Mood States (POMS) before the capsule and 20 min after injection of FDG.

healthy human subjects [3] = experiment: visual monitoring task (VMT): reaction time and accuracy
From the text: as §1

[4] = fluoxetine 40 mg oral versus placebo, voxel t-test images (FIG. 1)
[5] = ethanol 0.5 g/kg versus placebo (tonic water), FIG. 3

Row | SMILES | relative glucose metabolism in bilateral amygdaloid complex, hippocampal formation and ventral striatum (healthy human subjects [1]; [4]) | relative glucose metabolism in right superior parietal lobe (Brodmann area 7) (healthy human subjects [1]; [4]) | Average global CMRglu (healthy human subjects [1]; fluoxetine 40 mg oral, FDG about 90 min after dosing, four healthy subjects, mean of all slices) [mg 100 g^1 min^−1] | Average global CMRglu, fluoxetine scans versus placebo scans (healthy human subjects [1]; fluoxetine 40 mg oral, paired two-tailed t-test) | subjective effects as measured by the POMS (healthy human subjects [2]) | accuracy on the VMT (% correct) (healthy human subjects [3]; after fluoxetine 40 mg oral) | median reaction time on the VMT (healthy human subjects [3]; after fluoxetine 40 mg oral, ± s.d.) [ms] | effects on reaction time or accuracy on the VMT (healthy human subjects [3]; fluoxetine 40 mg oral versus placebo) | rCMglu in frontal and temporal lobes, basal ganglia and limbic system (healthy human subjects [1]; [5]) | rCMglu in the left hemisphere (healthy human subjects [1]; [5])
1 | CNCCC(Oc1ccc(C(F)(F)F)cc1)c1ccccc1 (stereo not shown) [fluoxetine] | decreased relative glucose metabolism; also recorded: decrease in CMRglu | increased relative metabolism; also recorded: increase in metabolism | 8.22±0.86 | not significantly different | no differences | 96.4±3.2 | 553 ± 64 | no systematic effects | – | –
2 | CCO [ethanol] | – | – | – | – | – | – | – | – | affected | widespread increase
